Test results as given in patent publication US11007269B2, “P53 degradation inducing molecule and pharmaceutical composition” (Tokyo University of Science Foundation, priority 2016, dated 2021).

Molecular target: T1, MDM2 protein (Mus musculus, UniProt P23804)
T1 construct: from tissue; host or cells: liver of C57BL/6J wild-type mice
Assay: Western blot of MDM2 protein in liver of mice given the compound
Type: in vivo
Conditions: C57BL/6J mice, 48 hours after administration
Procedure: In Example 4, degradation (knockdown) of the endogenous wild-type p53 protein and MDM2 protein in mouse individuals in which TIBC-CANDDY_MLN had been administered was evaluated by Western blot analysis.
TIBC-CANDDY_MLN was dissolved in DMSO immediately before administration, and then dissolved in corn oil (Code No. 25606-55, Nacalai Tesque) so that the concentration of DMSO was 10 vol %, and then a dose of 50 mg/kg body weight or 100 mg/kg body weight was administered intraperitoneally to C57BL/6J wild-type mice (7 to 8 weeks old, male) (CLEA Japan, Inc.) (n=3). As a control, an injection carrier (corn oil containing 10 vol % DMSO) was used. The mice were kept under an environment of ad libitum access to food and water. […]
The frozen tissue (0.04 g) was triturated, and then 980 μL of 1×TKM tissue lysis buffer (50 mM triethanolamine (pH 7.8), 50 mM KCl, 5 mM MgCl2, 0.25 M sucrose, 1 mM PMSF, protein inhibitors cocktail-EDTA free (Code No. 03969-21, Nacalai Tesque), 1 mM DTT, Recombinant RNase inhibitor 5 μl/mL (40 U/μl, Cat No. 2313A, Lot No. K8402DA, TAKARA Bio)) was added, and dissolved by rotation for 15 minutes (1 rpm, 25° C.). […] The concentration of proteins in the tissue extract was quantified with a spectrophotometer with the tissue extract that had been diluted 20 times using DEPC-treated water. […]

T1 sequence (P23804 whole entry): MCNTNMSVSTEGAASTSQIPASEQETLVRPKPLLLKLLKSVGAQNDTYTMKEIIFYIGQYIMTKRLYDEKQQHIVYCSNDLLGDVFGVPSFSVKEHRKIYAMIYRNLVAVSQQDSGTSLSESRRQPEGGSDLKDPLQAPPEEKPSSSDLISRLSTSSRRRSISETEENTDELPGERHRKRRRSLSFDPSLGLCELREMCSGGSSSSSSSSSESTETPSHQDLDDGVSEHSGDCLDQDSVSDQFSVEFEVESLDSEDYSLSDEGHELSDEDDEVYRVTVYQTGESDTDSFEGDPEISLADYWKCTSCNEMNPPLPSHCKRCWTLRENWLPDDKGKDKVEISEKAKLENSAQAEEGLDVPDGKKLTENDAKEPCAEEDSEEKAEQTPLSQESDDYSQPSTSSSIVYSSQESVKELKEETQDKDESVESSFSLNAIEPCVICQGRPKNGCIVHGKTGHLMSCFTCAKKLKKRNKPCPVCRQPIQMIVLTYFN

CC(C)C[C@H](NC(=O)CNC(=O)c1cc(Cl)ccc1Cl)C(=O)NCCCCCCC(=O)Nc1ccc(C(=O)/C=C/c2ccc(I)cc2)cc1 [TIBC-CANDDY_MLN]
amount of MDM2 protein in the liver (50 mg/kg body weight intraperitoneally): reduced
amount of MDM2 protein in the liver (100 mg/kg body weight intraperitoneally): reduced
